Experimental data as given in patent US20110280865A1, “Ets-2 Biomarkers for Fibrotic Diseases and Uses Thereof” (THE OHIO STATE UNIVERSITY, priority 2009, published 2011).

Tested on: ets-2 (WT/WT) and ets-2 (A72/A72) mice
Test: Bronchoalveolar lavage (BAL) cell differentials after intra-peritoneal bleomycin
Assay type: in vivo, mouse
Conditions: mean ± S.E.M.
Description: Mice: Transgenic mice harboring a point mutation in Ets2 [Ets2tmA720sh, referred to as Ets2 (A72/A72)] resulting in a threonine to alanine conversion at position 72 were used. Wild type littermates (FVB/N background) were used as controls.
Bleomycin studies: Male mice, aged 6-12 weeks, underwent intra-peritoneal (IP) injection. Briefly, mice were injected with 0.035 U bleomycin/g or PBS (vehicle control) on days 1, 4, 8, 11, 15, 18, 22, and 25. One week following the last injection, mice were sacrificed. Prior to removal, lungs were lavaged with 1.0 ml of PBS. Lungs were subsequently removed and inflated at 20 cm pressure. The left lobe of the lung was placed in 10% Formalin and prepared for immunohistochemical processing (Histotechniques, Powell, Ohio), and the right lobes were snap frozen in liquid nitrogen for RNA, collagen, and protein analyses.
Bronchoalveolar lavage (BAL) analysis: Following the bleomycin regimen (33 days), two instillations of 0.5 ml of PBS were performed, and the BAL fluid (BALF) was collected. The total number of cells isolated via BAL was calculated. BAL fluid was then centrifuged to pellet the cells, and the supernatant (BALF) was collected and stored for ELISA analyses. Cells were resuspended in 100 μl of PBS, cytospun on slides, stained, and analyzed under a microscope for cell differentials.

[1] = ets-2 (A72/A72) mice, n = 7, 0.035 U bleomycin/g IP
[2] = ets-2 (WT/WT) mice, n = 5, 0.035 U bleomycin/g IP

bleomycin
Alveolar Macrophages [1]: 6.8 ± 1.4 ×10^4 | Lymphocytes [1]: 0.7 ± 0.6 ×10^4 | Neutrophils [1]: 0.8 ± 0.6 ×10^4 | Total cells [1]: 8.3 ± 2.0 ×10^4 | Alveolar Macrophages [2]: 12.0 ± 2.3 $ ×10^4 | Lymphocytes [2]: 0 ×10^4 | Neutrophils [2]: 0 ×10^4 | Total cells [2]: 12.0 ± 2.3 # ×10^4
